# Results as given in patent US12297349B2, “Transparent resin composition and transparent resin molded article” (Sony Group Corporation, priority 2016, dated 2025).
# Assay: Dissolved amount (solubility) in pure water
# Details: stirring for 30 minutes, filtering with 0.5 μm filter, insoluble matter measured
# Protocol: The content of the water-insoluble organic sulfonic acid and/or the metal salt thereof is 0.01 to 3.0 pts·mass to 100 pts·mass of the aromatic polycarbonate resin. […] The dissolved amount per 100 g of pure water can be calculated by mixing 3 g of sample with 100 g of pure water, stirring for 30 minutes, and then filtering it with 0.5 μm filter to measure the insoluble matter.
row,SMILES,A dissolved amount (solubility)
1,"O=S(=O)([O-])C(F)(F)C(F)(F)C(F)(F)C(F)(F)F.[K+] [b-2, potassium perfluorobutanesulfonate]",4.6 g/100 g of pure water
2,"Cc1ccc(S(=O)(=O)[O-])cc1.[Na+] [b-3, sodium paratoluenesulfonic acid]",24.0 g/100 g of pure water
